Source: PubChem BioAssay AID248 (DTP/NCI, 2004)
Inconclusive results and toxic doses are left out.

System: L1210 leukemia ip in BDF1 mice, survival T/C
Test: NCI In Vivo Anticancer Drug Screen. Data for tumor model L1210 Leukemia (intraperitoneal) in B6D2F1 (BDF1) mice
Conditions: endpoint: mean survival time, higher = longer survival
How it was run: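 Each compound was tested against a transplantable tumor grown in mice. The endpoint was survival, with treated animals benchmarked against vehicle controls as a simple ratio.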

[1] = dose: 100.0 mg/kg/injection, schedule: Q04DX003 (ip), vehicle: Klucel (hydroxypropylcellulose) (HPC)
[2] = dose: 200.0 mg/kg/injection, schedule: Q04DX003 (ip), vehicle: Klucel (hydroxypropylcellulose) (HPC)
[3] = dose: 400.0 mg/kg/injection, schedule: Q04DX003 (ip), vehicle: Klucel (hydroxypropylcellulose) (HPC)
[4] = dose: 100.0 mg/kg/injection, schedule: Q04DX003 (ip), vehicle: saline
[5] = dose: 100.0 mg/kg/injection, schedule: Q04DX002 (ip), vehicle: Klucel (hydroxypropylcellulose) (HPC)
[6] = dose: 200.0 mg/kg/injection, schedule: Q04DX002 (ip), vehicle: Klucel (hydroxypropylcellulose) (HPC)
[7] = dose: 400.0 mg/kg/injection, schedule: Q04DX002 (ip), vehicle: Klucel (hydroxypropylcellulose) (HPC)
[8] = dose: 100.0 mg/kg/injection, schedule: Q01DX001 (ip), vehicle: saline
[9] = dose: 200.0 mg/kg/injection, schedule: Q01DX001 (ip), vehicle: saline
[10] = dose: 400.0 mg/kg/injection, schedule: Q01DX001 (ip), vehicle: saline
[11] = dose: 100.0 mg/kg/injection, schedule: Q01DX001 (ip), vehicle: carboxymethylcellulose (CMC)
[12] = dose: 200.0 mg/kg/injection, schedule: Q01DX001 (ip), vehicle: carboxymethylcellulose (CMC)
[13] = dose: 400.0 mg/kg/injection, schedule: Q01DX001 (ip), vehicle: carboxymethylcellulose (CMC)
[14] = dose: 50.0 mg/kg/injection, schedule: Q01DX001 (ip), vehicle: carboxymethylcellulose (CMC)
[15] = dose: 100.0 mg/kg/injection, schedule: Q01DX009 (ip), vehicle: saline with Tween-80
[16] = dose: 200.0 mg/kg/injection, schedule: Q01DX009 (ip), vehicle: saline with Tween-80
[17] = dose: 400.0 mg/kg/injection, schedule: Q01DX009 (ip), vehicle: Klucel (hydroxypropylcellulose) (HPC)
[18] = dose: 100.0 mg/kg/injection, schedule: Q01DX009 (ip), vehicle: Klucel (hydroxypropylcellulose) (HPC)
[19] = dose: 200.0 mg/kg/injection, schedule: Q01DX009 (ip), vehicle: Klucel (hydroxypropylcellulose) (HPC)
[20] = dose: 100.0 mg/kg/injection, schedule: Q04DX002 (ip), vehicle: saline with Tween-80
[21] = dose: 200.0 mg/kg/injection, schedule: Q04DX002 (ip), vehicle: saline with Tween-80
[22] = dose: 400.0 mg/kg/injection, schedule: Q04DX002 (ip), vehicle: saline with Tween-80

With `C/C=C\COC(=O)COc1ccc(Cl)cc1` the T/C [1] was 94 % of control, the T/C [2] was 96 % of control and the T/C [3] was 107 % of control.
For `N#CC1C=Cc2ccccc2N1C(=O)Oc1ccccc1` (stereo not given), the T/C [4] was 104 % of control, the T/C (dose: 200.0 mg/kg/injection, schedule: Q04DX003 (ip), vehicle: saline) was 93 % of control and the T/C (dose: 400.0 mg/kg/injection, schedule: Q04DX003 (ip), vehicle: saline) was 94 % of control.
`CCOC(=O)N(c1ccccc1)c1ccccc1` was tested, and the T/C [5] was 106 % of control, the T/C [6] was 106 % of control and the T/C [7] was 98 % of control.
For `O=C1NC2C1C1c3ccccc3C2C12CC2` (stereo not given), the T/C [5] was 105 % of control, the T/C [6] was 97 % of control and the T/C [7] was 94 % of control.
For `CC1CCCC1=O` (stereo not given), the T/C (dose: 50.0 mg/kg/injection, schedule: Q01DX001 (ip), vehicle: saline) was 96 % of control, the T/C [8] was 93 % of control and the T/C [9] was 93 % of control. The T/C [10] was 93 % of control.
For `O=C(CCl)c1ccccc1`, the T/C [11] was 91 % of control, the T/C [12] was 95 % of control and the T/C [13] was 97 % of control.
For `O=C(O)CC[P+](c1ccccc1)(c1ccccc1)c1ccccc1`, the T/C (dose: 100.0 mg/kg/injection, schedule: Q04DX003 (ip), vehicle: saline with Tween-80) was 90 % of control, the T/C (dose: 200.0 mg/kg/injection, schedule: Q04DX003 (ip), vehicle: saline with Tween-80) was 98 % of control and the T/C (dose: 400.0 mg/kg/injection, schedule: Q04DX003 (ip), vehicle: saline with Tween-80) was 93 % of control.
With `CCOC(=O)C(CNC(N)=O)(c1ccccc1)c1ccccc1` the T/C [14] was 93 % of control, the T/C [11] was 102 % of control and the T/C [12] was 87 % of control. For the same compound, the T/C [13] was 98 % of control.
`Cc1ccc(S(=O)(=O)CO)cc1` was tested, and the T/C (dose: 50.0 mg/kg/injection, schedule: Q01DX009 (ip), vehicle: saline with Tween-80) was 108 % of control, the T/C [15] was 89 % of control and the T/C [16] was 97 % of control.
For `O=NN(CCCl)C(=O)Nc1cccc2cccnc12`, the T/C (dose: 0.62 mg/kg/injection, schedule: Q01DX001 (ip), vehicle: carboxymethylcellulose (CMC)) was 112 % of control, the T/C (dose: 1.25 mg/kg/injection, schedule: Q01DX001 (ip), vehicle: carboxymethylcellulose (CMC)) was 117 % of control and the T/C (dose: 2.5 mg/kg/injection, schedule: Q01DX001 (ip), vehicle: carboxymethylcellulose (CMC)) was 117 % of control.
`CC12CCC(=O)C=C1CCC1C2CCC2(C)C(C(=O)COC(=O)Cc3ccc(N(CCCl)CCCl)cc3)CCC12` (stereo not given) was tested, and the T/C (dose: 100.0 mg/kg/injection, schedule: Q01DX001 (sc), vehicle: steriod suspending solution) was 99 % of control, the T/C (dose: 200.0 mg/kg/injection, schedule: Q01DX001 (sc), vehicle: steriod suspending solution) was 101 % of control and the T/C (dose: 400.0 mg/kg/injection, schedule: Q01DX001 (sc), vehicle: steriod suspending solution) was 100 % of control. For the same compound, the T/C [17] was 90 % of control.
With `CNC(=O)Oc1cccc(NC(=O)OC(C)C)c1` the T/C [15] was 97 % of control, the T/C [16] was 98 % of control and the T/C (dose: 400.0 mg/kg/injection, schedule: Q01DX009 (ip), vehicle: saline with Tween-80) was 92 % of control.
In the case of `CCCCNC(=O)Nc1cc(Cl)c(Cl)cc1C`, the T/C [5] is reported as 91 % of control, the T/C [6] is reported as 97 % of control and the T/C [7] is reported as 97 % of control.
In the case of `O=C1c2ccccc2C(=O)c2c1ccc1nc(Cl)c(=O)[nH]c21`, the T/C [11] is reported as 93 % of control, the T/C [12] is reported as 95 % of control and the T/C [13] is reported as 100 % of control.
In the case of `O=[N+]([O-])c1ccc(C=Nc2cccc(C(F)(F)F)c2)cc1`, the T/C [18] is reported as 90 % of control, the T/C [1] is reported as 90 % of control and the T/C [19] is reported as 98 % of control. For the same compound, the T/C [2] was 95 % of control and the T/C [3] was 93 % of control.
In the case of `CCCCCCCCCCCCCCCCCC1=NCCN1CCN`, the T/C (dose: 25.0 mg/kg/injection, schedule: Q01DX009 (ip), vehicle: saline) is reported as 111 % of control, the T/C (dose: 25.0 mg/kg/injection, schedule: Q04DX003 (ip), vehicle: saline) is reported as 97 % of control and the T/C (dose: 50.0 mg/kg/injection, schedule: Q01DX009 (ip), vehicle: saline) is reported as 97 % of control. The T/C (dose: 50.0 mg/kg/injection, schedule: Q04DX003 (ip), vehicle: saline) was 92 % of control, the T/C (dose: 100.0 mg/kg/injection, schedule: Q01DX001 (ip), vehicle: acetone) was 100 % of control and the T/C [4] was 101 % of control.
With `CCCCCCCCCCCCCCCCCC(=O)c1ccccc1` the T/C [18] was 105 % of control, the T/C [19] was 105 % of control and the T/C [17] was 100 % of control.
In the case of `COc1ccc(Nc2ccc3c4c(cccc24)C(=O)N(c2ccc(OC)cc2)C3=O)cc1`, the T/C [20] is reported as 92 % of control, the T/C [21] is reported as 95 % of control and the T/C [22] is reported as 92 % of control.
`CC(=O)OC1COC(Cl)C(OC(C)=O)C1OC(C)=O` (stereo not given) was tested, and the T/C (dose: 100.0 mg/kg/injection, schedule: Q01DX001 (sc), vehicle: olive oil, sesame oil, peanut oil) was 103 % of control, the T/C (dose: 200.0 mg/kg/injection, schedule: Q01DX001 (sc), vehicle: olive oil, sesame oil, peanut oil) was 97 % of control and the T/C (dose: 400.0 mg/kg/injection, schedule: Q01DX001 (sc), vehicle: olive oil, sesame oil, peanut oil) was 97 % of control.
For `Cc1nc2ccccc2c2ccccc12`, the T/C (dose: 50.0 mg/kg/injection, schedule: Q01DX009 (ip), vehicle: Klucel (hydroxypropylcellulose) (HPC)) was 111 % of control, the T/C [18] was 105 % of control and the T/C [19] was 111 % of control.
For `CC(C)(C)SC(=O)Cc1ccc([N+](=O)[O-])cc1`, the T/C (dose: 50.0 mg/kg/injection, schedule: Q04DX002 (ip), vehicle: saline with Tween-80) was 90 % of control, the T/C [20] was 100 % of control and the T/C [21] was 93 % of control. For the same compound, the T/C [22] was 87 % of control.
In the case of `CC(=O)Nc1nnc(NC(C)=O)s1`, the T/C (dose: 9.38 mg/kg/injection, schedule: Q01DX001 (ip), vehicle: other) is reported as 102 % of control and the T/C (dose: 18.75 mg/kg/injection, schedule: Q01DX001 (ip), vehicle: other) is reported as 107 % of control.
`COc1ccc2c(c1)c(Cl)c1ccc(Cl)cc1[n+]2[O-]` was tested, and the T/C [20] was 91 % of control, the T/C [21] was 95 % of control and the T/C [22] was 107 % of control.
For `CN(C)[S+](C)(=O)/C=C(/[O-])c1ccccc1` (stereo not given), the T/C (dose: 62.5 mg/kg/injection, schedule: Q01DX001 (ip), vehicle: saline) was 106 % of control, the T/C (dose: 125.0 mg/kg/injection, schedule: Q01DX001 (ip), vehicle: saline) was 102 % of control and the T/C (dose: 250.0 mg/kg/injection, schedule: Q01DX001 (ip), vehicle: saline) was 102 % of control.
`CCCCCCCCCCSCCO` was tested, and the T/C [8] was 102 % of control, the T/C [9] was 102 % of control and the T/C [10] was 97 % of control.
`CNc1ncnc2[nH]ncc12` was tested, and the T/C [14] was 94 % of control, the T/C [11] was 88 % of control and the T/C [12] was 96 % of control. For the same compound, the T/C [13] was 103 % of control.
For `O=NN(CCCl)C(=O)Nc1ccc(NC(=O)N(CCCl)N=O)cc1`, the T/C [8] was 201 % of control, the T/C [9] was 182 % of control and the T/C (dose: 300.0 mg/kg/injection, schedule: Q01DX001 (ip), vehicle: saline) was 230 % of control. The T/C [10] was 264 % of control, the T/C (dose: 500.0 mg/kg/injection, schedule: Q01DX001 (ip), vehicle: saline) was 285 % of control and the T/C (dose: 600.0 mg/kg/injection, schedule: Q01DX001 (ip), vehicle: saline) was 300 % of control. For the same compound, the T/C (dose: 800.0 mg/kg/injection, schedule: Q01DX001 (ip), vehicle: saline) was 291 % of control and the T/C (dose: 1000.0 mg/kg/injection, schedule: Q01DX001 (ip), vehicle: saline) was 268 % of control.
